Test results published in article PMC4383205, “Structure of a low-population intermediate state in the release of an enzyme product” (eLife, 2015).

Biological target: T1, human lysozyme (Homo sapiens, UniProt P61626)
T1 construct: gene LYZ; wild type, expressed in Pichia pastoris (residues 1 to 130)
T1 sequence (P61626 19-148): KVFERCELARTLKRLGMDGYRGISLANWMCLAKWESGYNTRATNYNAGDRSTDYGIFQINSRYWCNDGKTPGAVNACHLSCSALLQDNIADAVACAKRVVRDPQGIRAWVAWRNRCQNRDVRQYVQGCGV
Test: SPR (Biacore single chain kinetics); also 1H-15N HSQC NMR titration and RDCs of the bound state
Format: binding

In the case of `CC(=O)N[C@H]1[C@H](O[C@H]2[C@H](O)[C@@H](NC(C)=O)C(O)O[C@@H]2CO)O[C@H](CO)[C@@H](O[C@@H]2O[C@H](CO)[C@@H](O)[C@H](O)[C@H]2NC(C)=O)[C@@H]1O` (stereo partly shown) [triNAG, N,N′,N′′-Triacetylchitotriose], the Kd is reported as about 9 µM.
